Laboratory results from ChEMBL document CHEMBL4715849, “Recent Progress in the Discovery of Antifungal Agents Targeting the Cell Wall” (J Med Chem, 2020).
≈ marks a conversion by molar mass, not a printed value. One block for each compound: values may come before it.

Legend:
[1] = Solubility in water at pH 7.2; assay type: physicochemical
Candida albicans [2] = experiment: Antifungal activity against Candida albicans infected in mouse assessed as protection against fungus-induced lethal infection; assay type: functional; settings: read-out: PD50
Candida albicans [3] = experiment: Antifungal activity against Candida albicans A9540 infected in iv dosed ICR mouse assessed as protection against fungus-induced lethal infection dosed thrice at 48 hrs interval immediately following fungal challenge and measured on day 20 post infection by Litchfield -Wilcoxon method; assay type: functional; settings: 480 h, time 20 day, read-out: PD50
Aspergillus fumigatus [4] = experiment: Antifungal activity against Aspergillus fumigatus IAM2034 infected in iv dosed ICR mouse assessed as protection against fungus-induced lethal infection dosed thrice at 48 hrs interval immediately following fungal challenge and measured on day 20 post infection by Litchfield -Wilcoxon method; assay type: functional; settings: 480 h, time 20 day, read-out: PD50
[5] = Toxicity in iv dosed mouse; assay type: organism-based; settings: in vivo
Candida albicans [6] = experiment: Antifungal activity against Candida albicans AMB-25 incubated for 48 hrs by serial two-fold dilution method; assay type: functional
[7] = Inhibition of Candida albicans IFO1060 1,3-beta-D-glucan synthase
Candida albicans [8] = experiment: Antifungal activity against Candida albicans […] by NCCLS protocol based broth M27-A microdilution method; assay type: functional, organism-based
Candida albicans [9] = experiment: Antifungal activity against Candida albicans CY1002 infected in iv dosed ICR mouse administered as single dose measured on day 7; assay type: functional; settings: 168 h, time 7 day
[10] = Inhibition of Saccharomyces cerevisiae CGMCC 2.145 CHS using UDP-GlcNAc as substrate incubated for 60 min by WGA-HRP tracer based method
Chitin synthase 1 = Chitin synthase 1 (Candida albicans, UniProt P23316); experiment: Inhibition of Candida albicans chitin synthase 1 expressed in Saccharomyces cerevisiae RRA400-1U cells using [3H]UDP-GlcNAc as substrate by scintillation counting method
Candida albicans [11] = experiment: Antifungal activity against Candida albicans CAI4 incubated for 24 hrs; assay type: functional
Candida albicans [12] = experiment: Antifungal activity against Candida albicans ATCC 48130 incubated for 1 day by NCCLS M27-A2 microdilution method; assay type: functional; settings: ATCC 48130, 24 h
Aspergillus fumigatus [13] = experiment: Antifungal activity against Aspergillus fumigatus CF1003 incubated for 1 day by NCCLS M27-A2 microdilution method; assay type: functional; settings: CF1003, 24 h
Candida albicans [14] = experiment: Antifungal activity against Candida albicans IFO0005 incubated for 3 day by NCCLS M27-A2 microdilution method; assay type: functional; settings: IFO0005, 72 h
Candida albicans [15] = experiment: Antifungal activity against Candida albicans CY1124 incubated for 1 day by NCCLS M27-A2 microdilution method; assay type: functional; settings: CY1124, 24 h
Aspergillus fumigatus [16] = experiment: Antifungal activity against Aspergillus fumigatus CF1083 incubated for 1 day by NCCLS M27-A2 microdilution method; assay type: functional; settings: CF1083, 24 h
[17] = Inhibition of Candida albicans IFO1060 1,3-beta-D-glucan synthase using UDP-[6-3H]-glucose as substrate incubated for 30 mins by radioactivity
Aspergillus fumigatus [18] = experiment: Antifungal activity against Aspergillus fumigatus CF924390 incubated for 1 day by NCCLS M27-A2 microdilution method; assay type: functional; settings: CF924390, 24 h
Candida albicans [19] = experiment: Antifungal activity against Candida albicans CY1123 incubated for 1 day by NCCLS M27-A2 microdilution method; assay type: functional; settings: CY1123, 24 h
Candida albicans [20] = experiment: Antifungal activity against Candida albicans ATCC2001 incubated for 2 day by NCCLS M27-A2 microdilution method; assay type: functional; settings: ATCC2001, 48 h
Candida albicans [21] = experiment: Antifungal activity against Candida albicans CY3003 incubated for 1 day by NCCLS M27-A2 microdilution method; assay type: functional; settings: CY3003, 24 h
Blastomyces dermatitidis = experiment: Antifungal activity against Blastomyces dermatitidis IFO8144 incubated for 40 hrs by serial agar dilution method; assay type: functional
Cryptococcus neoformans [22] = experiment: Antifungal activity against Cryptococcus neoformans IAM4514 incubated for 40 hrs by serial agar dilution method; assay type: functional
Sporothrix schenckii = experiment: Antifungal activity against Sporothrix schenckii IFO8158 incubated for 40 hrs by serial agar dilution method; assay type: functional
Aspergillus flavus = experiment: Antifungal activity against Aspergillus flavus FA21436 NRRL 484 incubated for 40 hrs by serial agar dilution method; assay type: functional
[23] = tested on: Trichophyton mentagrophytes; experiment: Antifungal activity against Trichophyton mentagrophytes N0.4329 incubated for 40 hrs by serial agar dilution method; assay type: functional
Fusarium verticillioides = experiment: Antifungal activity against Fusarium monoliforme A2284 incubated for 40 hrs by serial agar dilution method; assay type: functional
Cryptococcus neoformans [24] = experiment: Antifungal activity against Cryptococcus neoformans D49 incubated for 40 hrs by serial agar dilution method; assay type: functional
Candida albicans [25] = experiment: Antifungal activity against Candida albicans A9540 incubated for 40 hrs by serial agar dilution method; assay type: functional
Candida albicans [26] = experiment: Antifungal activity against Candida albicans A9540 infected in iv dosed ICR mouse assessed as protection against fungus-induced lethal infection dosed once immediately following fungal challenge and measured on day 20 post infection; assay type: functional; settings: 480 h, time 20 day, read-out: PD50
Candida albicans [27] = experiment: Antifungal activity against Candida albicans IAM 888 incubated for 40 hrs by serial agar dilution method; assay type: functional
Scedosporium boydii = experiment: Antifungal activity against Petriellidium boydii IFO8078 incubated for 40 hrs by serial agar dilution method; assay type: functional
Aspergillus fumigatus [28] = experiment: Antifungal activity against Aspergillus fumigatus IAM2034 incubated for 40 hrs by serial agar dilution method; assay type: functional
Aspergillus fumigatus [29] = experiment: Antifungal activity against Aspergillus fumigatus IAM2530 incubated for 40 hrs by serial agar dilution method; assay type: functional
[30] = tested on: Trichophyton mentagrophytes; experiment: Antifungal activity against Trichophyton mentagrophytes D155 incubated for 40 hrs by serial agar dilution method; assay type: functional
Candida albicans [31] = experiment: Antifungal activity against Candida albicans ATCC 10261 incubated for 24 hrs by serial dilution method; assay type: functional
Nakaseomyces glabratus = experiment: Antifungal activity against Candida glabrata incubated for 24 hrs by serial dilution method; assay type: functional
Vanrija humicola = experiment: Antifungal activity against Candida humicola incubated for 24 hrs by serial dilution method; assay type: functional
Debaryomyces hansenii = experiment: Antifungal activity against Candida famata incubated for 24 hrs by serial dilution method; assay type: functional
Candida albicans [32] = experiment: Antifungal activity against Candida albicans ATCC 26278 incubated for 24 hrs by serial dilution method; assay type: functional
[33] = Inhibition of Candida albicans glucosamine-6-phosphate synthase by Elson-Morgan method

Sequence of Chitin synthase 1 (P23316 whole entry): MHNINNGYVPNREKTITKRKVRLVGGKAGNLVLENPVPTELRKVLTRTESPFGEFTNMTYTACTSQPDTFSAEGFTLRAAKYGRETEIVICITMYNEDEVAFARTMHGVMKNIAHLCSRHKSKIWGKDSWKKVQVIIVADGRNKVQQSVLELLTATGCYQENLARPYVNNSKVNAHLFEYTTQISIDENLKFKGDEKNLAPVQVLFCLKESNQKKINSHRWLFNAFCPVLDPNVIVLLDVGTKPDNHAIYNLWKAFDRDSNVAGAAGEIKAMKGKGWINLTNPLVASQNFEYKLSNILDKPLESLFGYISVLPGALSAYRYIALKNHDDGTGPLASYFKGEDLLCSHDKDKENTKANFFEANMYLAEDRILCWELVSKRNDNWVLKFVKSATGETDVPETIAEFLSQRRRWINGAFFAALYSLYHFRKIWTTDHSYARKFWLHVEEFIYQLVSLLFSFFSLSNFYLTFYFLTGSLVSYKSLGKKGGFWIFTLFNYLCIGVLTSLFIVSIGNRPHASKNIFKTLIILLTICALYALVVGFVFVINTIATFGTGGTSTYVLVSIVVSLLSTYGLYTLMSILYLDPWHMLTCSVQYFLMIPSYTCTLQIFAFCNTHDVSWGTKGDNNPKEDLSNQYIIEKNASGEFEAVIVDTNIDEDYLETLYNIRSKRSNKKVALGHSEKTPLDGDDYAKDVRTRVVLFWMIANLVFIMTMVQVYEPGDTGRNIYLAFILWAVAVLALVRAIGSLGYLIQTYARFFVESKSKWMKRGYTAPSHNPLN

IC50 [7]: 0.006 µM
IC50 (Candida albicans [8]): 0.01 µg/mL (≈ 0.00712 µM)
Compound: CCCCCCCCCCCCC[C@H]1OC(=O)[C@H](CCCN)NC(=O)[C@@H]([C@@H](C)O)NC(=O)CNC(=O)[C@H]([C@H](O)CCN)NC(=O)[C@H]2[C@@H](O)CCN2C(=O)[C@H]([C@@H](C)O)NC(=O)[C@@H]2C[C@@H](O)CN2C(=O)[C@H](C(C)C)NC(=O)[C@H](Cc2ccc(O)cc2)NC(=O)[C@@H](C)NC(=O)[C@H]([C@@H](C)O)NC1=O
ED50 (Candida albicans [9]): 0.04 mg/kg

IC50 [10]: 100 µM
Compound: COc1ccc(N2CCN(C(=O)[C@H](O)[C@@H](O)C(=O)Nc3c(O)c4cc(O)ccc4oc3=O)CC2)cc1

More lines, now with the values behind:

Compound: COc1cc(O)c2c(c1)C(=O)c1c(cc3c(c1O)-c1c(cc(C)c(C(=O)N[C@H](CO)C(=O)O)c1O)[C@H](O[C@@H]1O[C@H](C)[C@H](N(C)C)[C@H](O[C@@H]4OC[C@@H](O)[C@H](O)[C@H]4O)[C@H]1O)[C@H]3O)C2=O
solubility [1]: > 20 mg/mL
ED50 (Candida albicans [2]): 50 mg/kg
ED50 (Candida albicans [3]): 15 mg/kg
ED50 (Aspergillus fumigatus [4]): 23 mg/kg

Compound: CCC[C@H](N)C(=O)N[C@@H](CNC(=O)/C=C/C(=O)OC)C(=O)O
LD50 [5]: > 300 mg/kg
MIC (Candida albicans [6]): 0.4 µg/mL (≈ 1.27 µM)

Compound: CC(C)(C)C#CC=CCNc1cccc2[nH]c(=O)ccc12
Ki (Chitin synthase 1): 0.63 µM
MIC50 (Candida albicans [11]): 3.3 µM (≈ 0.925 µg/mL)

Compound: O=C(Nc1c(F)cccc1F)OCCCN1CCN(c2nc3ccccc3s2)CC1
MIC (Candida albicans [12]): 0.26 µg/mL (≈ 0.601 µM)
MIC (Aspergillus fumigatus [13]): 0.15 µg/mL (≈ 0.347 µM)
MIC (Candida albicans [14]): 0.17 µg/mL (≈ 0.393 µM)
MIC (Candida albicans [15]): 0.26 µg/mL (≈ 0.601 µM)
MIC (Aspergillus fumigatus [16]): 0.15 µg/mL (≈ 0.347 µM)
IC50 [17]: 0.16 µM
MIC (Aspergillus fumigatus [18]): 0.15 µg/mL (≈ 0.347 µM)
MIC (Candida albicans [19]): 0.26 µg/mL (≈ 0.601 µM)
MIC (Candida albicans [20]): 0.17 µg/mL (≈ 0.393 µM)
MIC (Candida albicans [21]): 0.26 µg/mL (≈ 0.601 µM)

Compound: CN[C@@H]1[C@H](O[C@@H]2OC[C@@H](O)[C@H](O)[C@H]2O)[C@@H](O)[C@H](O[C@H]2c3cc(C)c(C(=O)N[C@H](CO)C(=O)O)c(O)c3-c3c(cc4c(c3O)C(=O)c3cc(OC)cc(O)c3C4=O)[C@@H]2O)O[C@@H]1C
MIC (Blastomyces dermatitidis): 0.8 µg/mL (≈ 0.934 µM)
MIC (Cryptococcus neoformans [22]): 0.8 µg/mL (≈ 0.934 µM)
MIC (Sporothrix schenckii): 0.8 µg/mL (≈ 0.934 µM)
MIC (Aspergillus flavus): 0.8 µg/mL (≈ 0.934 µM)
MIC [23]: 0.8 µg/mL (≈ 0.934 µM)
MIC (Fusarium verticillioides): 0.8 µg/mL (≈ 0.934 µM)
MIC (Cryptococcus neoformans [24]): 0.8 µg/mL (≈ 0.934 µM)
MIC (Candida albicans [25]): 0.8 µg/mL (≈ 0.934 µM)
ED50 (Candida albicans [26]): 7.4 mg/kg
MIC (Candida albicans [27]): 0.8 µg/mL (≈ 0.934 µM)
MIC (Scedosporium boydii): 0.8 µg/mL (≈ 0.934 µM)
MIC (Aspergillus fumigatus [28]): 0.8 µg/mL (≈ 0.934 µM)
MIC (Aspergillus fumigatus [29]): 0.8 µg/mL (≈ 0.934 µM)
MIC [30]: 0.8 µg/mL (≈ 0.934 µM)

Compound: COP(=O)(OC)OC[C@@H](O)[C@@H](O)[C@H](O)[C@@H](N)CO
MIC (Candida albicans [31]): 300 µg/mL (≈ 1040 µM)
MIC (Nakaseomyces glabratus): 300 µg/mL (≈ 1040 µM)
MIC (Vanrija humicola): 300 µg/mL (≈ 1040 µM)
MIC (Debaryomyces hansenii): 300 µg/mL (≈ 1040 µM)
MIC (Candida albicans [32]): 300 µg/mL (≈ 1040 µM)
IC50 [33]: 4750 µM
